Read-outs that look alike come from different tables or passages of the source.
Experiments:
MMP1 = conditions: cited from earlier work; for IL-1 induced increase in MMP1 expression: Nose M. et al. (1997)
MMP3 = conditions: cited from earlier work
neutrophils [1] = conditions: 4 months after reaching a therapeutic dose of more than 20 mg/week; cited from earlier work
[2] = therapeutically effective treatment dose level; cited from earlier work
[3] = Pharmacokinetic cross-over study in healthy volunteers (oral / subcutaneous); type: in vivo, human; conditions: for absorption: after oral and subcutaneous administration
Method: Administrations are separated by a wash-out period of 7-14 days. […] Plasma samples are stored at −20° C. until analysis. The primary objective of the study is to evaluate the relative bio-availability of methotrexate following its co-administration with novobiocin. Secondary objectives of the study include the overall tolerability and safety of the co-administration of a therapeutic dose of methotrexate with a non-therapeutic dose of novobiocin for both administration routes overall and in comparison, to administration of methotrexate alone.

RA patients = conditions: 15 mg/wk, cited from earlier work
[4] = tested on: pristane-induced arthritis; test: Pristane-induced arthritis (PIA) rat model; type: in vivo
Method: The animals are acclimatized for approximately one week before initiation of experiment. All rats are weighed day 0, the day of disease induction, for determination of mean weight of the rats included in the experiment. Arthritis is induced by subcutaneous (s.c.) administration of 200 μl pristane on Day 0. The rats are anesthetized by inhaling a mixture of Isoba vet (3.5%) and oxygen. The root of the tail is cleaned with 70% ethanol and the oil is injected approximately 0.5 cm from the root of the tail. A slight pressure is put on the injection site for 5 seconds after injection to prevent leakage of the oil. Test compounds are administered either i.v. or p.o. (by gavage). Disease is evaluated three times per week from disease onset using a macroscopic scoring system of the four limbs ranging from 0 to 15 (1 point for each swollen or red toe, 1 point for a swollen or red mid foot digit or knuckle, 5 points for a swollen ankle) resulting in a maximum total score of 60 for each rat. The disease scoring is done in a double-blind fashion, i.e. the scorer is unaware of the treatment received by the animal. […]

[5] = Pharmacokinetics in rats after oral (gavage) or parenteral administration
Method: (§9) In vivo study protocol—in accordance with local (Malmo, Sweden) animal ethic license number M388-12: Following acclimatization to the housing conditions for a minimum of 7 days after arrival, male Wistar (Hannover) rats (Taconic, Denmark), average weight 300 g; average age 8-10 weeks, are treated with test items (see table 1); 12-16 h prior to dosing all food except for an amount equivalent to a half day consumption is removed. The test items are administrated using a soft gavage tube (p.o.) or by injecting the test item in the tail vein (i.v). The volume given is 5 mL/kg (p.o.) or 1 mL/kg (i.v.). Before i.v administration rats are anesthetized using isoflurane. The rats are conscious during sample collection and the blood is taken from the sub-lingual vein. Blood samples are collected from each rat over a period of up to 24 h. At each time point two aliquots of 50 μL each is added to a vial containing 150 μL of sterile water. The samples are mixed immediately and stored at −18° C. until preparation for bioanalysis is commenced. All formulations are prepared on the same day that dosing takes place. The body weight of the rat is recorded before dosing. The weight of the syringe is recorded before and after administration to allow calculation of the actual amount of test sample delivered. The actual doses are used during the evaluation of the data.
(§10) Samples and standards are injected by a HTC PAL from CTC analytics into an LC system from Shimadzu consisting of a high-pressure gradient system of two LC-10 AD pumps controlled by a SCL-10A controller from Shimadzu. The samples are separated using reverse-phase chromatography with gradient elution at a flow rate of 0.8 mL/min. Mobile phases are A:94.9/5/0.1 water/acetonitrile/formic acid and B:5/94.9/0.1 water/acetonitrile/formic acid. Gradient starts at 0% B and increases linearly to 100% B in 4 minutes, 100% B is kept for 0.5 minutes and then the system returns to 0% B in 0.1 minutes. The system is equilibrated for 1.4 minutes until the total run time of 6 minutes. The eluent is analysed by a Quattro Ultima from Micromass equipped with an electrospray ion source. Data are collected, and calibrations are calculated by MassLynx 4.0 software. […] The eluent is ionized by negative ion electrospray.
(§11) The diluted blood sample (50 μL blood, 150 μL water) is thawed and mixed with 400 μL of acetonitrile, to precipitate the protein. The sample is centrifuged at 5000 g for 5 minutes and 100 μL of the supernatant is transferred to a 300 μL glass vial and 100 μL of water is added to reduce the acetonitrile concentration.
(§12) The concentration of the standard curve is in the range from 5 nM to 15625 nM. Samples with analyte concentrations above the upper limit of quantification are diluted with matrix to reach within the assay range. A non-compartmental analysis (NCA) is performed using the Phoenix WinNonLin analysis tool.

[6] = cited from earlier work
[7] = adults; cited from earlier work
neutrophils [8] = test: Induction of neutrophil apoptosis (in vitro/ex vivo model of arthritis); type: cell-based, rat
From the text: (§1) Apoptosis, in contrast to necrosis, is the demise of a cell through a series of controlled sequential events, resulting in an increase of anti-inflammatory mediators instead of invoking an inflammatory response, because the contents of the cell are removed by phagocytosis and not released to the direct environment. Apoptosis involves the activation of caspases, including caspase 3. Aberration in expression and/or function of the regulators of cell death through apoptosis is thought to result in pathological conditions, including autoimmune diseases and cancer. Although apoptotic cells are uncommonly observed in vivo in RA tissues, in vitro inflammatory cells from RA tissues, like synoviocytes, T-cells and macrophages, are highly susceptible to apoptosis induced through the FAS-TNF-receptor pathway. The absence of apoptotic cells in vivo may be explained by the high levels of nitric oxide in RA tissues, which inhibits caspase 3 and thus cell apoptosis.
(§2) Novobiocin is a topoisomerase II inhibitor and at therapeutically relevant concentration levels, is expected to counteract CPPD-triggered prolonged survival of neutrophils. Such a pharmacodynamic effect of Novobiocin may be quantified either through activity (levels) of caspase 3, an apoptotic cleavage enzyme, or cytoplasmic histone-associated-DNA fragmentation assessment, using commercially available kits.
(§3) In the latter model, the effect on neutrophil apoptosis can be either studied directly, or indirectly, exposing the cells in vitro to a challenge that prolongs their survival (e.g. CPPD crystals).
(§4) CPPD (Ca2P2O7.2H2O; triclinic form) crystals can be obtained using well described methods (Burt H M et al. 1989; Gras P. et al. 2013). Plasma protein coating of the crystals is achieved through incubation of the crystals in 50% plasma (Tudan C et al. 2003). The CPPD crystals are used in experiments with neutrophils from healthy control individuals/animals to mimic arthritic disease.
(§5) Neutrophils are separated from fresh human (healthy control/patient) or rat (healthy control; disease model) blood using standard methods and suspended in buffer at a concentration of 1×10^6 cells/ml. The cells are incubated at 37° C. with occasional tumbling.
(§6) Stock solutions of TNFalpha, Methotrexate and Novobiocin are prepared in DMSO, keeping the DMSO concentrations in the cell suspensions below 0.1% during the experiment. The apoptosis rate following the administration of vehicle without active agent (negative control) represents the baseline rate of apoptosis (no effect level), while the apoptosis rate following the administration of TNFalpha (positive control) represents the maximum rate of apoptosis (100% effect level).

[9] = rat, in vivo
Method: as §9, §10, §11, §12

MMP1 (collagenase) = test: IL-1 induced mRNA upregulation of MMP1 in primary chondrocyte culture; type: cell-based, calf; conditions: concentrations <100 uM
Method: (§7) Primary chondrocyte culture was freshly isolated from calf cartilage. The cells were plated (at 2.5×10^6 per mL) in 100×20 mm culture dishes and incubated in Ham's F12 medium containing 5% fetal bovine serum (FBS) overnight at 37° C. The cells were starved with serum-free medium overnight. The cells were pretreated with MTX, NOV or a combination of MTX with 1, 2, 10 or 20 eq of NOV for 6 hours. Then IL-1 (20 ng/mL) was added to each plate and the plates were incubated for an additional 18 h.
(§8) Total RNA was isolated by the acidified guanidine isothiocyanate method and subjected to electrophoresis on a denatured gel. Denatured RNA samples were analyzed by gel electrophoresis in a 1% denaturing gel, transferred to a nylon membrane and hybridized respectively with the ^32P-cDNA probes for MMP1, MMP3 and proteoglycan and analyzed.

neutrophils [10] = test: Induction of neutrophil apoptosis (in vitro/ex vivo model of arthritis); type: cell-based, human
From the text: as §1, §2, §3, §4, §5, §6

plasma albumin = molecular target: T1, plasma albumin (Homo sapiens, UniProt P02768); conditions: in men; cited from earlier work
T1 construct: host or cells: human plasma

MMP3 (stromelysin1) = test: IL-1 induced mRNA upregulation of MMP3 in primary chondrocyte culture; type: cell-based; conditions: calf chondrocytes, IL-1 20 ng/mL; concentrations <100 uM
Method: as §7, §8

[11] = rodents; cited from earlier work
[12] = cited from earlier work; remark: listed apart in the source
[13] = at 1×10^−7 M, Jackson J K et al. (2008)
[14] = male, Wistar (Hannover), rat, whole blood, po, 2 mg/kg
[15] = neutrophils from healthy rat, concentrations <60 uM
[16] = neutrophils from healthy subjects, concentrations <60 uM
[17] = male, Wistar (Hannover), rat, whole blood, ip, 5.5 mg/kg
[18] = male, Wistar (Hannover), rat, whole blood, po, 55 mg/kg

T1 sequence (P02768 25-609): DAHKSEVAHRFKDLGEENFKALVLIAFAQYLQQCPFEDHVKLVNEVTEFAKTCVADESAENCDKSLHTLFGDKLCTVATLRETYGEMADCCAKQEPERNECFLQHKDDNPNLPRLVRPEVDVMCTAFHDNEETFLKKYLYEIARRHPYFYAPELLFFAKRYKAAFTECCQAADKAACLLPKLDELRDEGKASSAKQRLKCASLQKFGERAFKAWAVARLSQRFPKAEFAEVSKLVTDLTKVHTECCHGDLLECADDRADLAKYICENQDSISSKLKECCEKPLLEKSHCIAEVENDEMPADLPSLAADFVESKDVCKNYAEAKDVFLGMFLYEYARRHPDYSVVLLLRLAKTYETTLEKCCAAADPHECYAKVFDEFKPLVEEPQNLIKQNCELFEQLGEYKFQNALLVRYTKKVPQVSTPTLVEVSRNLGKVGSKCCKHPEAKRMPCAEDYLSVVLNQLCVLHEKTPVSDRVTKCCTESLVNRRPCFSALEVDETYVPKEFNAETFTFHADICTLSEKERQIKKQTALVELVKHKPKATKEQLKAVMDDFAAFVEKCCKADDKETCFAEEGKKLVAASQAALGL

In the case of `CC[C@@]1(O)C(=O)OCc2c1cc1n(c2=O)Cc2cc3ccccc3nc2-1` [Camptothecin], the “IL-1 induced increase in MMP1 mRNA expression” value (MMP1; [13]) is listed as “almost completely inhibited” and the “IL-1 induced increase in MMP3 mRNA expression” value (MMP3; [13]) is listed as “almost completely inhibited”.
In the case of `O=C(O)c1cc(/N=N/c2ccc(S(=O)(=O)Nc3ccccn3)cc2)ccc1O` [Sulfasalazin], the “IL-1 induced increase in MMP1 expression” value (MMP1) is given as “suppressed” and the “IL-1 induced increase in MMP3 expression” value (MMP3; Nose M. et al. (1997)) is given as “suppressed”.
For `CN(Cc1cnc2nc(N)nc(N)c2n1)c1ccc(C(=O)N[C@@H](CCC(=O)O)C(=O)O)cc1` [methotrexate, N-[4-[[(2,4-diamino-6-pteridinyl)methyl]methylamino]benzoyl]-L-glutamic acid], the “neutrophil apoptosis in RA patients” value (neutrophils [1]) is listed as “restoration of neutrophil apoptosis to healthy control levels”, the “patient population in which treatment needs to be terminated due to intolerability” value [2] is listed as “about 30%” and the “maximum concentrations and total plasma concentrations, sub cutaneous versus oral administration” value ([3]; 15 mg methotrexate alone) is listed as “higher”. For the same compound, the absorption ([3]; healthy volunteers) was “rapidly absorbed”, the “time to maximum plasma concentrations, sub cutaneous route versus oral route” value ([3]; healthy volunteers) was “reached faster” and the “IL-1 induced increase in MMP1 expression” value (MMP1) was “suppressed”. For the same compound, the “treatment success, RA patients” value (RA patients; oral application route) was 24%, the “treatment success, RA patients” value (RA patients; sc application route) was 34% and the “inflammatory effects of pristane” value ([4]; 0.1 mg/kg every third day from day 7 (i.v.)) was “completely ameliorated”. It also gave an AUC(0-inf) [5, 14] of 0.923 µM·h, an AUC(0-t) [5, 14] of 0.759 µM·h and a Cmax [5, 14] of 277 nM. For the same compound, the “time within which non-polyglutamated methotrexate is excreted in the urine after administration” value ([6]; in vivo) was at most 12 h, the systemic bioavailability ([6]; man, oral dose) was “approximately 73%” and the bioavailability ([6]; subcutaneous (sc) administration) was “approx. 95%”.
In the case of `CO[C@@H]1[C@@H](OC(N)=O)[C@@H](O)[C@H](Oc2ccc3c(O)c(NC(=O)c4ccc(O)c(CC=C(C)C)c4)c(=O)oc3c2C)OC1(C)C` [novobiocin, 4-hydroxy-3-[4-hydroxy-3-(3-mehtylbut-2-enyl)benzamido]-8-methylcoumarin-7-yl 3-O-carbamoyl-5,5-di-C-methyl-alpha-L-lyxofuranoside], the “maximum tolerated dose (MTD)” value [7] is given as 4 g/day, the absorption ([3]; healthy volunteers) is given as “rapidly absorbed” and the “plasma levels versus levels at which any pharmacodynamic effects can be observed in non-clinical models of disease” value ([3]; healthy volunteers) is given as “remain well below”. The “time to maximum plasma concentrations, sub cutaneous route versus oral route” value ([3]; healthy volunteers) was “reached faster”, the “pharmacodynamic effects on neutrophil apoptosis” value (neutrophils [8]; neutrophils from disease model animals (PIA rat), concentrations <60 uM) was “No pharmacodynamic effects” and the “effect of NOV on CPPD-induced prolonged survival” value (neutrophils [8]; neutrophils from healthy controls (rat), control = base line, TNFalpha is 100% effect, concentrations <50 uM) was “No pharmacodynamic effects”. The “pharmacodynamic effects on CPPD-induced prolonged survival” value (neutrophils [8]; [15]) was “No pharmacodynamic effects”, the “pharmacodynamic effects on neutrophil apoptosis” value (neutrophils [8]; [15]) was “No pharmacodynamic effects” and the linearity of pharmacokinetics [9] was “linear”. For the same compound, the “pharmacodynamic effects on the IL-1 induced mRNA upregulation of MMP1” value (MMP1 (collagenase); calf chondrocytes, IL-1 20 ng/mL) was “No pharmacodynamic effects”, the “additional pharmacodynamic effects on the inhibition of the IL-1 induced mRNA upregulation of MMP1 by MTX” value (MMP1 (collagenase); novobiocin added to MTX) was “No additional pharmacodynamic effects” and the “effect of NOV on CPPD-induced prolonged survival” value (neutrophils [10]; neutrophils from healthy controls (human), control = base line, TNFalpha is 100% effect, concentrations <50 uM) was “No pharmacodynamic effects”. The “pharmacodynamic effects on CPPD-induced prolonged survival” value (neutrophils [10]; [16]) was “No pharmacodynamic effects”, the “pharmacodynamic effects on neutrophil apoptosis” value (neutrophils [10]; [16]) was “No pharmacodynamic effects” and the “pharmacodynamic effects on neutrophil apoptosis” value (neutrophils [10]; neutrophils from patients with rheumatoid arthritis, concentrations <60 uM) was “No pharmacodynamic effects”. The “bound to plasma albumin” value (plasma albumin) was 99.2%, the “pharmacodynamic effects on the IL-1 induced mRNA upregulation of MMP3” value (MMP3 (stromelysin1)) was “No pharmacodynamic effects” and the oral availability [11] was “about 30%”. The “therapeutic effect on the pristane-induced arthritis” value ([4]; daily per oral administration of up to 80 mg/kg from day 11 to 21 (after onset of disease)) was “no therapeutic effect”, the AUC(0-inf) [5, 17] was 25.5 µg·h/mL and the Cmax [5, 17] was 9600 ng/mL. For the same compound, the Tmax [5, 17] was 0.9 h, the AUC(0-inf) [5, 18] was 110 µg·h/mL and the AUC(0-t) [5, 18] was 110 µg·h/mL. For the same compound, the Cmax [5, 18] was 23300 ng/mL, the Tmax [5, 18] was 1.8 h and the Cmax ([5]; oral administration (gavage; 55 mg/kg)) was 23300 ng/mL. For the same compound, the “dose excreted unaltered in the urine” value ([12]; Wright W. W. et al., 1956) was “About 3%” and the “oral dose excreted in the faeces” value ([12]; hepatic/biliary excretion) was “about 30%”.

From patent US11883405B2, “Pharmaceutical composition comprising a combination of methotrexate and novobiocin, and the use of said composition in therapy” (Amplio Pharma AB, priority 2017, dated 2024)
